Measurements as given in ChEMBL document CHEMBL1201862, “PubChem BioAssay data set” (2004).
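48-hour exposure; five concentrations; linearly interpolated endpoints. At the GI50, growth is halved.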 Activity calls are given as the source filed them. Cut-off read from the data, not from the text of the source: active = GI50 up to about 1.1 µM and inactive = higher.

Key:
Assay in all cases: DTP human tumour cell line panel, 48 h
786-0 = test system: 786-0
A498 = test system: A498
CCRF-CEM = test system: CCRF-CEM
HCC 2998 = test system: HCC 2998
HCT-116 = test system: HCT-116
KM12 = test system: KM12
MCF7 = test system: MCF7
MDA-MB-435 = test system: MDA-MB-435
Malme-3M = test system: Malme-3M
OVCAR-3 = test system: OVCAR-3
SF-295 = test system: SF-295
SF-539 = test system: SF-539
SK-MEL-2 = test system: SK-MEL-2
SN12C = test system: SN12C
SNB-19 = test system: SNB-19
SNB-75 = test system: SNB-75
UO-31 = test system: UO-31
RXF 393 = test system: RXF 393
HOP-92 = test system: HOP-92

Measured: GI50

O=S(=O)(CCn1c(Sc2ccccc2)c(Sc2ccccc2)c2ccccc21)c1ccccc1
inactive: 786-0 > 100 µM | A498 > 100 µM | CCRF-CEM > 100 µM | HCC 2998 > 100 µM | HCT-116 > 100 µM | KM12 > 100 µM | MCF7 > 100 µM | MDA-MB-435 > 100 µM | Malme-3M > 100 µM | OVCAR-3 > 100 µM | SF-295 > 100 µM | SF-539 > 100 µM | SK-MEL-2 > 100 µM | SN12C > 100 µM | SNB-19 > 100 µM | SNB-75 > 100 µM | UO-31 > 100 µM

CC1(CC(=O)OC(C#C[Si](C)(C)C)Cc2ccccc2)OCCO1 (centres undefined)
inactive: 786-0 > 100 µM | A498 > 100 µM | CCRF-CEM > 100 µM | HCT-116 > 100 µM | KM12 > 100 µM | MCF7 > 100 µM | MDA-MB-435 > 100 µM | Malme-3M > 100 µM | RXF 393 > 100 µM | SF-295 > 100 µM | SF-539 > 100 µM | SK-MEL-2 > 100 µM | SN12C > 100 µM | SNB-19 > 100 µM | SNB-75 > 100 µM | UO-31 > 100 µM

COC1CC(N)C(O)C(C)O1 (centres undefined)
inactive: 786-0 > 100 µM | A498 > 100 µM | CCRF-CEM > 100 µM | HCC 2998 > 100 µM | HCT-116 > 100 µM | HOP-92 > 100 µM | KM12 > 100 µM | MCF7 > 100 µM | MDA-MB-435 > 100 µM | Malme-3M > 100 µM | OVCAR-3 > 100 µM | RXF 393 > 100 µM | SF-295 > 100 µM | SF-539 > 100 µM | SN12C > 100 µM | SNB-19 > 100 µM | SNB-75 > 100 µM | UO-31 > 100 µM

CC(=O)Nc1ccc(NC(=O)c2c(Cl)c(Cl)c(Cl)c(Cl)c2-c2nc3ccccc3[nH]2)cc1
inactive: 786-0 49.1 µM | A498 35 µM | CCRF-CEM 32.7 µM | HCC 2998 33.6 µM | HCT-116 32.1 µM | HOP-92 15.7 µM | KM12 28.2 µM | MCF7 26.7 µM | MDA-MB-435 35.1 µM | Malme-3M 51.4 µM | OVCAR-3 48.1 µM | RXF 393 29.4 µM | SF-295 38.3 µM | SF-539 38.5 µM | SN12C 35.4 µM | SNB-19 54.2 µM | SNB-75 73.3 µM | UO-31 47.5 µM

O=C1C2C(C(=O)N1c1ccccc1)C1(c3ccccc3)CCC2(C(=O)c2ccccc2)O1 (centres undefined)
inactive: 786-0 > 10 µM | A498 > 10 µM | CCRF-CEM > 10 µM | HCC 2998 > 10 µM | HCT-116 > 10 µM | KM12 > 10 µM | MCF7 > 10 µM | MDA-MB-435 > 10 µM | Malme-3M > 10 µM | OVCAR-3 > 10 µM | RXF 393 > 10 µM | SF-295 > 10 µM | SF-539 > 10 µM | SK-MEL-2 > 10 µM | SN12C > 10 µM | SNB-19 > 10 µM | UO-31 > 10 µM

O=C1/C(=C/c2cccc3ccccc23)CCc2ccc([N+](=O)[O-])cc21
inactive: 786-0 23.3 µM | A498 19.3 µM | CCRF-CEM 60.8 µM | HCC 2998 83.8 µM | HCT-116 14.5 µM | HOP-92 23 µM | KM12 6.32 µM | MCF7 4.8 µM | MDA-MB-435 6.71 µM | Malme-3M 17.3 µM | OVCAR-3 3.22 µM | RXF 393 23.4 µM | SF-295 11.9 µM | SF-539 21.5 µM | SN12C 28.4 µM | SNB-19 12.7 µM | SNB-75 19.2 µM | UO-31 33.7 µM
